{"source": "patent US20030050236A1", "about": "“Compounds that enhance tumor death” (The University of Chicago, priority 2000, published 2003)", "key": {"Akt": {"system": "Akt", "test": "Akt phosphorylation immunoblot", "format": "cell-based, human", "conditions": "insulin 5 min; LY294002 pretreatment; vector-transfected cells", "procedure": "Cells were harvested in a lysis buffer containing 10 mM Tris (pH 7.4), 1 mM EGTA, 1 mM EDTA, 1 mM DTT, 25 mM NaF, 2 mM MgCl2 and 10 μg/ml aprotinin, leupeptin and pepstatin. For subcellular fractionation, the postnuclear cell extract was centrifuged at 100,000× g for 45 min to obtain a cytosolic fraction and the pellet was washed and resuspended in a lysis buffer to obtain a membrane fraction. Whole cell lysate (for caspase-3 and pFLAG-PPT1) or fractionated proteins (for p21Ras and GAP-43) were resolved by 10%, 12% or 15% of SDS-PAGE for GAP-43, caspase-3 and pFLAG-PPT1, or Ras, respectively. For immunoblotting with anti-Akt antibodies, cells were lysed in RIPA buffer consisting of 50 mM Tris (pH 7.4), 150 MM NaCl, 1 mM EGTA, 1% Nonidet P-40, 0.25% sodium deoxycholate, 1 mM NaF and protease inhibitors. […] Resolved proteins were transferred to membrane overnight, blots incubated with a blocking solution for 1 h, incubated with appropriate primary and secondary antibodies and the signals detected by ECL.\nTo further investigate the downstream pathway by which PPT1 exerts protection against apoptosis, the activation of Akt was examined in control and PPT1 overexpressing cells. […] Therefore, the activation of Akt was analyzed by immunoblotting the cell extracts with an antibody specific to phosphorylated Akt (Ser473). […]"}, "Ras": {"system": "Ras", "test": "Ras activation: guanine nucleotide binding and membrane association", "format": "cell-based, human", "conditions": "C2 ceramide 30 μM", "procedure": "Cells were harvested in a lysis buffer containing 10 mM Tris (pH 7.4), 1 mM EGTA, 1 mM EDTA, 1 mM DTT, 25 mM NaF, 2 mM MgCl2 and 10 μg/ml aprotinin, leupeptin and pepstatin. For subcellular fractionation, the postnuclear cell extract was centrifuged at 100,000× g for 45 min to obtain a cytosolic fraction and the pellet was washed and resuspended in a lysis buffer to obtain a membrane fraction. Whole cell lysate (for caspase-3 and pFLAG-PPT1) or fractionated proteins (for p21Ras and GAP-43) were resolved by 10%, 12% or 15% of SDS-PAGE for GAP-43, caspase-3 and pFLAG-PPT1, or Ras, respectively. For immunoblotting with anti-Akt antibodies, cells were lysed in RIPA buffer consisting of 50 mM Tris (pH 7.4), 150 MM NaCl, 1 mM EGTA, 1% Nonidet P-40, 0.25% sodium deoxycholate, 1 mM NaF and protease inhibitors. After lysis on ice for 1 h, cell debris was removed by centrifugation at 3,000 rpm for 5 min and an equal amount of postnuclear cell extract loaded on 8.5% SDS-PAGE. Resolved proteins were transferred to membrane overnight, blots incubated with a blocking solution for 1 h, incubated with appropriate primary and secondary antibodies and the signals detected by ECL.\nCells (10×10^6) were washed and incubated with 0.8 mCi/ml ^32Pi for 4 h in phosphate-free DMEM. […] Cell lysate was immunoprecipitated with monoclonal anti-Ras and bound nucleotides eluted with 1 mM EDTA/25 μM GDP and GTP were analyzed by TLC using 0.75 M KH2PO4 (pH 3.5). After autoradiography, the radioactive spots corresponding to GDP and GTP were counted.\np21^Ras is a key regulator in the signaling pathways involved in variety of events such as cell proliferation, transcription and apoptosis. […] Therefore, the subcellular localization of Ras protein was analyzed after C2-ceramide treatment. Cells were treated with C2 ceramide (30 μM), harvested at 10 min and 60 min and the membrane fraction (100,000× g pellet) analyzed by immunoblotting."}, "caspase 3": {"system": "caspase 3", "test": "Caspase 3-like activity (DEVD-AFC) in LA-N-5 cells", "format": "cell-based, human", "conditions": "LY-294002 30 μM, C2 ceramide 25 μM", "procedure": "Cells treated with drug or vehicle were harvested, washed with PBS and cell pellets lysed in 25 mM Hepes (pH 7.4), containing 2 mM dithiothreitol (DTT), 5 mM EDTA and […] digitonin. After centrifugation at 6,000 rpm for 10 min to remove cell debris and unruptured cells, an aliquot of the supernatant was added to a reaction buffer consisting of 25 mM Hepes (pH 7.4), 2 mM DTT, 5 mM EDTA, […] digitonin and 2.5 μg/ml DEVD-AFC. After 1 h incubation, the hydrolysis of substrate was quantified by fluorometry at excitation 400 mn and emission 505 nm. The blank reaction was done in the absence of cell lysate. Enzyme activity was expressed as the amount of fluorescence produced per mg protein/h."}, "LA-N-5 cells": {"system": "LA-N-5 cells", "test": "DNA fragmentation assay (Hoechst 33285)", "format": "cell-based, human", "conditions": "LY-294002 30 μM, C2 ceramide 25 μM", "procedure": "Quantification of DNA fragments was performed as described previously (Dawson et al., 1997). Briefly, cells were lysed in 5 mM Tris (pH 8.0) with 0.1% Triton X-100 and 20 mM EDTA and centrifuged at 20,000× g for 40 min at 4° C. For determination of DNA fragments lost in culture media, an aliquot of media was adjusted to a final concentration of 25 mM EDTA and centrifuged as described above. […] Fluorescence was detected by luminescent spectrometer using excitation 365 nm and emission 460 mn. DNA values were calculated using a standard curve obtained from the measurement of calf thymus DNA fluorescence."}, "[1]": {"system": "LA-N-5 human neuroblastoma cells", "test": "Cell viability / cell death by MTT assay", "format": "cell-based", "method": "Cells were plated in 24-well culture plates containing 500 μl media. After drug treatment, 50 μl MTT (5 mg/ml in PBS) was added and incubated for 20 min at 37° C. An aliquot of 500 μl of 10% sodium dodecyl sulfate in 0.01 N HCl was added. After incubating overnight, the absorbance at 570 nm was determined by spectrophotometry. Cell viability was calculated as percent cell survival by dividing absorbance [treatment-blank] by absorbance [control-blank], where treatment is the reading for the treated cells, control is for vehicle-treated cells and blank is for MTT added to the media without cells.\nLA-N-5 human neuroblastoma cells were grown in DMEM supplemented with 10% fetal bovine serum and 1% gentamicin. […] Cell death was measured by the MTT method (Cho et al., 2000a; Cho et al., 2000b; Cho et al., 2000c)."}, "[2]": {"system": "COS cells and embryonic neuron primary cultures"}, "PPT1": {"target": "T1, PPT1 (Homo sapiens, UniProt P50897)", "T1 sequence (P50897 28-306)": "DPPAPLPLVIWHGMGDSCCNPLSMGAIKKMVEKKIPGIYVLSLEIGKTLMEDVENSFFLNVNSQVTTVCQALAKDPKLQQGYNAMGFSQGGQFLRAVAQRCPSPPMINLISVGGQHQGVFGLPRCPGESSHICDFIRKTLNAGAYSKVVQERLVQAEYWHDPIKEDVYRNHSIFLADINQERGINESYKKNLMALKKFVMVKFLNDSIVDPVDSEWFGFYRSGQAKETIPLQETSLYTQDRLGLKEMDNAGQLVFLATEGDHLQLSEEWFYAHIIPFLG", "test": "In vitro PPT1 activity assay, [14C]palmitoyl peptide substrates, cell extract", "conditions": "read-out: inhibition in an in vitro assay (PPT)", "method": "Incubations were performed for 20 min at 37° C. and reactions terminated by addition of 1 ml of chloroform/methanol/2N HCl (2:1:0.06, v/v). After the centrifugation, organic phase was analyzed by HPTLC using n-butanol/pyridine/acetic acid/water (45:30:9:36, v/v) and [14C] palmitate release was quantified.\nThe peptide sequence, AcGCVKIKK (a palmitoylation site in K-Ras), was modified by substituting the SH group of cysteine with NH2 to generate diamino propionic acid, which was then acylated with palmitate (AcG-palmitoyl diamino propionate-VKIKK). […] In another set of experiments, the unmodified peptide itself (AcGCVKIKK) was used as a control to exclude the possibility of a nonspecific effect of the sequence on PPT activity.\nIn brief, the cell sonicate was incubated in the assay mixture containing 50 mM sodium citrate (pH 4.0) and IRY([^4C]palmitoylated)CWLRR octapeptide (2,000-4,000 cpm) for 20 min at 37° C. For the pH profile of PPT1 activity, 50 mM sodium citrate (pH 5 or 6) or 50 mM Tris-HCl (pH 7.4) was used with other conditions remaining the same. After addition of 1 ml of chloroform/methanol/2N HCl (2:1:0.06, by volume) and centrifugation, the organic phase was dried, reconstituted sample analyzed by HPTLC using n-butanol/pyridine/acetic acid/water (45:30:9:36, by volume) and the radioactive spot corresponding to [^14C] palmitate was counted.\nPPT1 activity was measured as described above. In brief, the cell sonicate was incubated in the assay mixture (50 mM sodium citrate (pH 4.0) for [^14C]palmitoylated [sequence] Po peptide substrate (3,000-4,000 cpm) or 50 mM Tris (pH 7.4) for [^14C]palmitoylated MLCCMRR GAP43 peptide substrate) for 20 min at 37° C. After organic extraction, samples were analyzed by HPTLC using n-butanol/pyridine/acetic acid/water (45:30:9:36, by volume) and the radioactive spot corresponding to [^14C] palmitate was counted."}}, "note": "Where a SMILES comes first, the peptide text is derived from it. [ ]: non-standard residue; d: D form. The star is where a group is joined. Palmitoyl = CCCCCCCCCCCCCCCC(=O)*; Dap = NC[C@H](N)C(=O)O", "data": [{"compound": "insulin: growth factor used as positive control for Akt activation", "values": [{"measurement": "phosphorylation of Akt (Ser473)", "setting": "Akt", "result": "induced significant phosphorylation of Akt"}]}, {"compound": "CCCCCCCCCCCCC/C=C/[C@@H](O)[C@H](CO)NC(C)=O", "note": "[C2 ceramide]", "values": [{"measurement": "GTP/(GDP+GTP) ratio increase over control", "setting": "Ras; 10 min", "result": 33, "unit": "%"}, {"measurement": "membrane-association of Ras", "setting": "Ras; 10 min and 60 min", "result": "time-dependent increase in membrane-association of Ras"}, {"measurement": "GTP/(GDP+GTP) ratio increase over control", "setting": "Ras; 60 min", "result": 85, "unit": "%"}, {"measurement": "activation of caspase 3", "setting": "caspase 3", "result": "time-dependent activation of caspase 3"}, {"measurement": "DNA fragmentation", "setting": "LA-N-5 cells", "result": "increase in DNA fragmentation"}, {"measurement": "death of cells (MTT)", "setting": "[1]; 30 μM C2-ceramide alone, 6 h", "result": "about 10%"}, {"measurement": "cell death (MTT assay)", "setting": "[1]; LY-294002 30 μM, C2 ceramide 25 μM, 24 hrs", "result": "about 50%"}]}, {"compound": "CCCCCCCCCCCCCCCC(=O)NC[C@H](NC(=O)CNC(C)=O)C(=O)N[C@H](C(=O)N[C@@H](CCCCN)C(=O)N[C@H](C(=O)N[C@@H](CCCCN)C(=O)N[C@@H](CCCCN)C(N)=O)[C@@H](C)CC)C(C)C", "note": "[DAP1, AcG-palmitoyl diamino propionate-VKIKK] (Ac-G[Dap](Palmitoyl)VKIKK-NH2)", "values": [{"measurement": "effect on COS cells and embryonic neuron primary cultures", "setting": "[2]", "result": "much less effect"}, {"measurement": "inhibition at 20 µM", "setting": "PPT1", "result": 85, "unit": "%"}, {"measurement": "toxicity to non-dividing cells", "setting": "non-dividing cells", "result": "does not appear to be toxic"}]}]}
